Data on one compound can be found in US20120289517A1, “SOLID PHARMACEUTICAL COMPOSITION FOR ORAL ADMINISTRATION” (Kowa Co., Ltd., priority 2009, published 2012).

Data set [1] is described as follows: Dissolution test (paddle method, Japanese Pharmacopoeia). Format: physicochemical. To be noted: summary of Test Example 1. The protocol:
Thus, the concentrations of the compound a after 5, 10, 15, 30, 45 and 60 minutes were measured. The sample solution collected at each time point was filtered through a membrane filter made of PTFE (DISMIC-25HP manufactured by Toyo Roshi Kaisha, Ltd.) having a pore size of 0.45 μm, and was analyzed by a high performance liquid chromatographic method using a reversed phase column (manufactured by Nomura Chemical Co., Ltd.; Develosil ODS-HG-5). Thus, the dissolution rates were calculated.

The nature of another data set: Solubility in water. Format: physicochemical.

SMILES strings stand for the structures.

With `CSc1cc(C)nc(SC)c1NC(=O)CN1CCN(CCSc2nc3ccccc3[nH]2)CC1` [compound a, 2-[4-[2-(Benzimidazol-2-ylthio)ethyl]piperazin-1-yl]-N-[2,4-bis(methylthio)-6-methyl-3-pyridyl]acetamide], the “dissolubility, result in words” value in data set [1] is listed as “hardly dissolved”. The solubility in water in the data set “Solubility in water” was 0.05 % (W/V).
